From US20250144132A1, “POLYSACCHARIDE COMPOUND WITH A DEFINED MOLECULAR STRUCTURE THAT CAN ELIMINATE THE TOXIC SIDE EFFECTS OF CHEMOTHERAPY DRUGS” (priority 2023, published 2025)
Read-outs that look alike come from different tables or passages of the source.

Legend:
H22-bearing mice = assay type: in vivo
Method: A homogenate suspension of H22 hepatoma solid tumors was injected subcutaneously under the axilla of 65 healthy male C57 mice to create a solid tumor model. Once all mouse tumors averaged a volume of about 230 mm3, mice were randomized into groups based on tumor volume and were administered the respective drugs or drug solvents via oral gavage or intraperitoneal injection for 25 consecutive days. Longest and shortest diameters of tumors were measured every three days to calculate tumor volume, and mouse weights were recorded every three days. At the end of the experiment, tumors, spleens, and thymuses were harvested and weighed to calculate tumor, spleen, and thymus indices.
Based on previous experimental results, Ganoderma lucidum polysaccharide GLP-1 was administered at a low dose of 50 mg/kg and a high dose of 150 mg/kg as shown in Table 20.
(§1) Where TRTV is the relative tumor volume in the experimental group, and CRTV is the relative tumor volume in the model control group. Relative tumor volume (RTV)=Vt/V0, where Vt is the tumor volume on day t of dosing, and V0 is the tumor volume at the time of grouping.
(§2) Where T represents the average tumor weight in the treatment group, and C represents the average tumor weight in the model control group.
(§3) Spleen and thymus organ coefficients: After the last dose, spleen, thymus, and tumor weights are measured, and organ coefficients are calculated.
(§4) Tumor index (%)=(tumor weight/body weight)×100%.
(§5) Immune organ index (mg/g)=(organ mass/body weight)×1000.
(§6) Statistical analyses were performed using SPSS 17.0, with the significance level set at P≤0.05. Measurement data were expressed as mean±standard deviation (x±s). Normality and homogeneity of variance were tested using Leven's test. If data met normality and homogeneity of variance (P>0.05), one-way ANOVA and LSD test were used for statistical analysis. […] If the Kruskal-Wallis test was statistically significant (P<0.05), comparison analysis was performed using Dunnett's Test (a non-parametric method). Evaluation considered statistical differences and biological significance.

[1] = test system: 4T1 breast tumor-bearing mice; assay type: in vivo, BALB/c mice
Method: A suspension of 4T1 breast cancer cells was injected subcutaneously into the left shoulder back of 60 healthy female BALB/c mice to create solid tumor models. When the mean tumor volume reached approximately 190 mm^3, the mice were randomized into groups based on tumor volume, and were administered the respective drugs or drug solvents via oral gavage or intraperitoneal injection over 18 consecutive days. Longest and shortest diameters of tumors were measured every three days to calculate tumor volume, and mouse weights were recorded every three days. At the end of the experiment, tumors, spleens, and thymuses were harvested and weighed to calculate tumor, spleen, and thymus indices.
Based on previous experimental results, Ganoderma lucidum polysaccharide GLP-1 was administered at a low dose of 50 mg/kg and a high dose of 150 mg/kg as shown in Table 27.
as §1, §2, §3, §4, §5
as §6, with “(˜±s).” for “(x±s).”

LLC cells = experiment: Cytotoxic effects of Ganoderma lucidum polysaccharide GLP-1 combined with cisplatin on LLC cells (MTT, absorbance at 570 nm); assay type: cell-based; settings: 48 h, GLP-1 2 mg/mL
Method: LLC lung cancer cells were seeded in a 96-well cell culture plate at 3,000 cells per well and incubated at 37° C. in a 5% CO2 incubator for 24 h. […] The cultures were then incubated for another 48 h before measuring the absorbance at 570 nm.

LLC-bearing mice = settings: cisplatin 4 mg/kg, Kanglaite 1404 mg/kg
[2] = cisplatin 3 mg/kg, GLP-1 low-dose 50 mg/kg
[3] = blood, flow cytometry, GLP-1 low-dose 130 mg/kg

For `N.N.[Cl][Pt][Cl]` [Cisplatin, cisplatin], the Survival time (H22-bearing mice; 25 days of dosing, cisplatin 3 mg/kg, GLP-1 low-dose 50 mg/kg) was 25 ± 0 days, the “Tumor growth inhibition rate vs. the model control group” value (H22-bearing mice; H22-bearing mice, end of experiment, cisplatin alone) was 84.2% and the “Tumor growth inhibition rate compared to the model control group” value (H22-bearing mice; by tumor weight, cisplatin 3 mg/kg, GLP-1 low-dose 50 mg/kg) was 84.2%. The Mortality rate (H22-bearing mice; [2]) was 0%, the Number of deaths (H22-bearing mice; [2]) was 0 and the Number of deaths ([1]; 4T1 breast tumor-bearing mice, 8 animals, cisplatin 4 mg/kg i.p.) was 1. For the same compound, the Survival time ([1]; 4T1 breast tumor-bearing mice, 18-day dosing, cisplatin 4 mg/kg i.p.) was 17.1 ± 2.3 days, the Tumor volume ([1]; 4T1 breast tumor-bearing mice, D0, cisplatin 4 mg/kg i.p.) was 190.5 ± 34.8 mm^3 and the “Tumor growth inhibition rate vs. the model control group” value ([1]; 4T1 breast tumor-bearing mice, end of experiment, cisplatin 4 mg/kg i.p.) was 71.6%. The “Tumor growth inhibition rate compared to the model control group” value ([1]; by tumor weight, cisplatin 4 mg/kg, GLP-1 low-dose 50 mg/kg) was 71.6%, the Inhibition rate (LLC cells) was 35.2% and the Tumor volume (LLC-bearing mice; D1, GLP-1 low-dose 130 mg/kg) was 94.99 mm^3. It also gave a Tumor volume (LLC-bearing mice; D4, GLP-1 low-dose 130 mg/kg) of 150.58 mm^3, a Tumor volume (LLC-bearing mice; D7, GLP-1 low-dose 130 mg/kg) of 8.91 mm^3 and a Tumor volume (LLC-bearing mice; D10, GLP-1 low-dose 130 mg/kg) of 6.51 mm^3. It also gave a Tumor volume (LLC-bearing mice; D13, GLP-1 low-dose 130 mg/kg) of 27.36 mm^3, a Tumor volume (LLC-bearing mice; D16, GLP-1 low-dose 130 mg/kg) of 36.09 mm^3 and a Tumor volume (LLC-bearing mice; D19, GLP-1 low-dose 130 mg/kg) of 71.00 mm^3. The Tumor volume (LLC-bearing mice; D22, GLP-1 low-dose 130 mg/kg) was 824.01 mm^3, the Tumor volume (LLC-bearing mice; D25, GLP-1 low-dose 130 mg/kg) was 976.79 mm^3 and the Tumor histopathology (LLC-bearing mice; H&E, x200) was “large areas of necrosis and hemorrhage were visible at the tumor center, with abundant tumor cells”. For the same compound, the Tumor coefficient (LLC-bearing mice; after last dose, GLP-1 low-dose 130 mg/kg) was 7.528 ± 2.567 %, the “CD3^+/CD4^+” value (LLC-bearing mice; [3]) was 0.093 ± 0.025 and the “CD3^+/CD8^+” value (LLC-bearing mice; [3]) was 1.571 ± 0.406. The “Tumor growth inhibition rate” value (LLC-bearing mice; by tumor weight vs model control, GLP-1 low-dose 130 mg/kg) was 61.6%, the “Blood WBC level compared to the model control group” value (LLC-bearing mice; GLP-1 low-dose 130 mg/kg) was “significantly decreased” and the “Body weight compared to the model control group” value (LLC-bearing mice; GLP-1 low-dose 130 mg/kg) was “significantly decreased after administration from D7 to D25”. The Mortality rate (LLC-bearing mice; GLP-1 low-dose 130 mg/kg) was 0%, the Number of deaths (LLC-bearing mice; GLP-1 low-dose 130 mg/kg) was 0 and the “Number of surviving animals” value (LLC-bearing mice; GLP-1 low-dose 130 mg/kg) was 8.
